According to the NIST ThermoML archive (doi:10.1016/j.jct.2012.06.031):

Assay: xn = mol fraction of the nth substance listed
Details: 101 kPa, Liquid; for viscosity: Concentric cylinders viscometry; for mass density: Vibrating tube method

CC(O)CO (stereo not given) [1,2-propanediol] + c1ccncc1
Details	mass density [kg/m3]	viscosity [mPa·s]
288.15 K, x2 = 0	1040.08	81.21
288.15 K, x2 = 0.1	1035.59	52.73
288.15 K, x2 = 0.2	1030.94	33
288.15 K, x2 = 0.2999	1026.33	20.08
288.15 K, x2 = 0.4	1021.39	12.08
288.15 K, x2 = 0.4999	1016.46	7.326
288.15 K, x2 = 0.6	1011.23	4.547
288.15 K, x2 = 0.7001	1005.6	3
288.15 K, x2 = 0.8	999.698	1.935
288.15 K, x2 = 0.9	994.093	1.391
293.15 K, x2 = 0	1036.46	58.75
293.15 K, x2 = 0.1	1031.78	38.74
293.15 K, x2 = 0.2	1026.95	24.82
293.15 K, x2 = 0.2999	1022.18	15.55
293.15 K, x2 = 0.4	1017.12	9.643
293.15 K, x2 = 0.4999	1012.06	6.036
293.15 K, x2 = 0.6	1006.71	3.857
293.15 K, x2 = 0.7001	1000.96	2.588
293.15 K, x2 = 0.8	994.925	1.736
293.15 K, x2 = 0.9	989.201	1.274
298.15 K, x2 = 0	1032.8	43.44
298.15 K, x2 = 0.1	1027.92	29.09
298.15 K, x2 = 0.2	1022.93	19.05
298.15 K, x2 = 0.2999	1018.01	12.15
298.15 K, x2 = 0.4	1012.81	7.822
298.15 K, x2 = 0.4999	1007.63	5.021
298.15 K, x2 = 0.6	1002.16	3.31
298.15 K, x2 = 0.7001	996.296	2.292
298.15 K, x2 = 0.8	990.138	1.567
298.15 K, x2 = 0.9	984.298	1.171
303.15 K, x2 = 0	1029.09	32.75
303.15 K, x2 = 0.1	1024.03	22.28
303.15 K, x2 = 0.2	1018.88	14.9
303.15 K, x2 = 0.2999	1013.81	9.81
303.15 K, x2 = 0.4	1008.48	6.396
303.15 K, x2 = 0.4999	1003.18	4.234
303.15 K, x2 = 0.6	997.549	2.866
303.15 K, x2 = 0.7001	991.612	2.008
303.15 K, x2 = 0.8	985.331	1.425
303.15 K, x2 = 0.9	979.376	1.082
308.15 K, x2 = 0	1025.34	25.16
308.15 K, x2 = 0.1	1020.1	17.37
308.15 K, x2 = 0.2	1014.79	11.85
308.15 K, x2 = 0.2999	1009.58	7.981
308.15 K, x2 = 0.4	1004.12	5.363
308.15 K, x2 = 0.4999	998.699	3.638
308.15 K, x2 = 0.6	992.998	2.514
308.15 K, x2 = 0.7001	986.903	1.795
308.15 K, x2 = 0.8	980.506	1.301
308.15 K, x2 = 0.9	974.443	1.002
313.15 K, x2 = 0	1021.55	19.65
313.15 K, x2 = 0.1	1016.14	13.76
313.15 K, x2 = 0.2	1010.67	9.567
313.15 K, x2 = 0.2999	1005.32	6.581
313.15 K, x2 = 0.4	999.722	4.523
313.15 K, x2 = 0.4999	994.186	3.137
313.15 K, x2 = 0.6	988.375	2.218
313.15 K, x2 = 0.7001	982.171	1.613
313.15 K, x2 = 0.8	975.66	1.193
313.15 K, x2 = 0.9	969.488	0.9311
318.15 K, x2 = 0	1017.73	15.58
318.15 K, x2 = 0.1	1012.14	11.07
318.15 K, x2 = 0.2	1006.51	7.833
318.15 K, x2 = 0.2999	1001.02	5.495
318.15 K, x2 = 0.4	995.298	3.855
318.15 K, x2 = 0.4999	989.644	2.729
318.15 K, x2 = 0.6	983.722	1.972
318.15 K, x2 = 0.7001	977.41	1.459
318.15 K, x2 = 0.8	970.792	1.098
318.15 K, x2 = 0.9	964.514	0.8674
323.15 K, x2 = 0	1013.86	12.55
323.15 K, x2 = 0.1	1008.1	9.082
323.15 K, x2 = 0.2	1002.32	6.551
323.15 K, x2 = 0.2999	996.693	4.678
323.15 K, x2 = 0.4	990.839	3.349
323.15 K, x2 = 0.4999	985.073	2.416
323.15 K, x2 = 0.6	979.044	1.786
323.15 K, x2 = 0.7001	972.625	1.341
323.15 K, x2 = 0.8	965.9	1.022
323.15 K, x2 = 0.9	959.522	0.8177
